Experimental data taken from patent publication US10709709B2, “Substituted carbonucleoside derivatives useful as anticancer agents” (Pfizer Inc., priority 2016, dated 2020).

Tests used:
[1] = test system: A549 lung adenocarcinoma cells; assay: A549 proliferation assay (Cell Titer Glo); assay type: cell-based; conditions: Homo sapiens, A549, 168 h, 7 days with compound, cell viability by Cell Titer Glo (ATP)
Procedure, shortened: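 A549 cells plated overnight, then treated with nine-point 3.3-fold dilutions (final top 10 μM, 0.2% DMSO) for 7 days at 37 °C, with media and compound refreshed on day 4. Viability measured as ATP by Cell Titer Glo luminescence; IC50 from 4-parameter fit normalized to DMSO control.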

[2] = target: PRMT5/MEP50 protein complex (Homo sapiens (Human), UniProt O14744); assay: PRMT5 biochemical assay (3H-SAM methylation of H4(1-21) peptide, filter plate scintillation); conditions: 10 nM PRMT5/MEP50 complex, 200 nM H4(1-21) peptide, 1 uM SAM, 25 minute incubation at room temperature
Procedure, shortened: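 Scintillation read-out: after 25 min at room temperature and a TCA stop, tritiated H4(1-21) product (peptide 200 nM) is caught on a filter plate. Reaction holds 10 nM PRMT5/MEP50 and 1 uM 3H-labelled plus cold SAM in 50 mM Tris pH 8.5 with MgCl2, EDTA and TCEP. IC50 values come from a 4-parameter dose-response fit.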

Chain of PRMT5/MEP50 protein complex (O14744 other isoform, or with tags, fused parts or gaps): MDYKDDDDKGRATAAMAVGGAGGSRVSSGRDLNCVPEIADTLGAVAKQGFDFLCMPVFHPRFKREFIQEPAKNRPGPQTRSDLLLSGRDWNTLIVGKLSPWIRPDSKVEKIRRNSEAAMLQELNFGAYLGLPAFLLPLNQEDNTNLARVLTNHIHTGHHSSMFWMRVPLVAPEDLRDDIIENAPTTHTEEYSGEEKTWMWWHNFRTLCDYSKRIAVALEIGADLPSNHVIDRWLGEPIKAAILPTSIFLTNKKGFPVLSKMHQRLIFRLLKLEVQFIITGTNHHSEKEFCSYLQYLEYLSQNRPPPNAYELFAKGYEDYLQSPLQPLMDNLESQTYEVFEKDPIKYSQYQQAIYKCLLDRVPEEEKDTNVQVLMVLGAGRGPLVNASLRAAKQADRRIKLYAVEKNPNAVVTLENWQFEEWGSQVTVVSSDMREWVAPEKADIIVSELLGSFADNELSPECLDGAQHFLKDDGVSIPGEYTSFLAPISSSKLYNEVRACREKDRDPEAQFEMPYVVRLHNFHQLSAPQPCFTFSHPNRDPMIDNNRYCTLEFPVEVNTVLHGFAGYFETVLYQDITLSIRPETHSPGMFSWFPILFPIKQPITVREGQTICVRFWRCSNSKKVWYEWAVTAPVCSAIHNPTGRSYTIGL
Chain of PRMT5/MEP50 protein complex (Q9BQA1 whole entry partner): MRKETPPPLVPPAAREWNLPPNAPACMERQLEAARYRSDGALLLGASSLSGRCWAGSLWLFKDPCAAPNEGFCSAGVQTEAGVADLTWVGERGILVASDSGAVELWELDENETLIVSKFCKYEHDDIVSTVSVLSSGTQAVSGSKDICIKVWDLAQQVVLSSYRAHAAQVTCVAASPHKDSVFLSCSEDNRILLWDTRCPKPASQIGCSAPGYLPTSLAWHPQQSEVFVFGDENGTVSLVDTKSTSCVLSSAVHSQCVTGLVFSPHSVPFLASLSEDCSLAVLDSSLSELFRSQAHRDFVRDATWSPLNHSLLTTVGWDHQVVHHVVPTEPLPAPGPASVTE

Row | Compound | IC50 [1] [nM] | IC50 [2] [nM]
1 | Cc1nc(N)c2c(F)cn([C@@H]3C[C@H](Oc4ccc(F)c5c4CNCC5)[C@@H](O)[C@H]3O)c2n1 [Example 126, (1S,2S,3R,5S)-3-(4-amino-5-fluoro-2-methyl-7H-pyrrolo[2,3-d]pyrimidin-7-yl)-5-((5-fluoro-1,2,3,4-tetrahydroisoquinolin-8-yl)oxy)cyclopentane-1,2-diol] | 498 | 1
2 | Cc1ncnc2c1ccn2[C@@H]1C[C@H](Oc2cc(C(F)F)cc3c2CNCC3)[C@@H](O)[C@H]1O [Example 154, (1S,2S,3S,5R)-3-((6-(difluoromethyl)-1,2,3,4-tetrahydroisoquinolin-8-yl)oxy)-5-(4-methyl-7H-pyrrolo[2,3-d]pyrimidin-7-yl)cyclopentane-1,2-diol] | 2 | 1
3 | Cc1ncnc2c1ccn2[C@@H]1C[C@H](Oc2cc(F)cc3c2CNCCO3)[C@@H](O)[C@H]1O [Example 203, (1S,2S,3S,5R)-3-((8-fluoro-2,3,4,5-tetrahydrobenzo[f][1,4]oxazepin-6-yl)oxy)-5-(4-methyl-7H-pyrrolo[2,3-d]pyrimidin-7-yl)cyclopentane-1,2-diol] | 677 | 1
4 | Cc1ncnc2c1ccn2C1C[C@H](Oc2cccc3ccncc23)[C@@H](O)[C@H]1O (stereo partly drawn) [Example 77, (1S,2S,3S,5R)-3-(isoquinolin-8-yloxy)-5-(4-methyl-7H-pyrrolo[2,3-d]pyrimidin-7-yl)cyclopentane-1,2-diol] | 1120 | 65
5 | Cc1ncnc2c1ccn2[C@@H]1C[C@H](Oc2cc(Cl)c(F)cc2[C@H](C)N)[C@@H](O)[C@H]1O [Example 139, (1S,2S,3S,5R)-3-(2-((S)-1-aminoethyl)-5-chloro-4-fluorophenoxy)-5-(4-methyl-7H-pyrrolo[2,3-d]pyrimidin-7-yl)cyclopentane-1,2-diol] | 637 | 1
6 | Nc1ncnc2c1c(F)cn2[C@@H]1C[C@H](Oc2cc(C(F)(F)F)cc3c2CNCC3)[C@@H](O)[C@H]1O [Example 104, (1S,2S,3R,5S)-3-(4-amino-5-fluoro-7H-pyrrolo[2,3-d]pyrimidin-7-yl)-5-((6-(trifluoromethyl)-1,2,3,4-tetrahydroisoquinolin-8-yl)oxy)cyclopentane-1,2-diol] | 460 | 1
7 | Cc1ncnc2c1ccn2[C@@H]1C[C@H](Oc2nc(C(F)F)cc3c2CNCC3)[C@@H](O)[C@H]1O [Example 194, (1S,2S,3S,5R)-3-((3-(difluoromethyl)-5,6,7,8-tetrahydro-2,7-naphthyridin-1-yl)oxy)-5-(4-methyl-7H-pyrrolo[2,3-d]pyrimidin-7-yl)cyclopentane-1,2-diol] | 111 | 1
8 | Cc1ncnc2c1ccn2[C@@H]1C[C@H](Oc2cccc3c2CNC[C@H](C)O3)[C@@H](O)[C@H]1O [Example 210, (1S,2S,3S,5R)-3-(((S)-2-methyl-2,3,4,5-tetrahydrobenzo[f][1,4]oxazepin-6-yl)oxy)-5-(4-methyl-7H-pyrrolo[2,3-d]pyrimidin-7-yl)cyclopentane-1,2-diol] | 1550 | 1
9 | Nc1ncnc2c1c(Cl)cn2[C@@H]1C[C@H](Oc2cc(F)c(F)c3c2CNCC3)[C@@H](O)[C@H]1O [Example 128, (1S,2S,3R,5S)-3-(4-amino-5-chloro-7H-pyrrolo[2,3-d]pyrimidin-7-yl)-5-((5,6-difluoro-1,2,3,4-tetrahydroisoquinolin-8-yl)oxy)cyclopentane-1,2-diol] | 597 | 1
10 | Cc1ncnc2c1ccn2[C@@H]1C[C@H]([C@](C)(O)c2ccc(F)cc2)[C@@H](O)[C@H]1O [Example 19, (1S,2R,3S,5R)-3-[(1 S)-1-(4-fluorophenyl)-1-hydroxyethyl]-5-(4-methyl-7H-pyrrolo[2,3-d]pyrimidin-7-yl)cyclopentane-1,2-diol] | 1070 | 64
11 | O[C@@H]1[C@H](O)[C@@H](Oc2cccc3c2CNCC3)C[C@H]1n1ccc2cncnc21 [Example 118, (1S,2S,3R,5S)-3-(7H-pyrrolo[2,3-d]pyrimidin-7-yl)-5-((1,2,3,4-tetrahydroisoquinolin-8-yl)oxy)cyclopentane-1,2-diol] | 4840 | 2
12 | Cc1ncnc2c1ccn2[C@@H]1C[C@H](Oc2cc(Cl)cc3c2CNCC3)[C@@H](O)[C@H]1O [Example 87, (1S,2S,3S,5R)-3-((6-chloro-1,2,3,4-tetrahydroisoquinolin-8-yl)oxy)-5-(4-methyl-7H-pyrrolo[2,3-d]pyrimidin-7-yl)cyclopentane-1,2-diol] | 296 | 2
13 | Cc1ncnc2c1ccn2[C@@H]1C[C@H]([C@H](O)c2cccc3c2CNCC3)[C@@H](O)[C@H]1O [Example 56, (1S,2R,3R,5R)-3-((S)-hydroxy(1,2,3,4-tetrahydroisoquinolin-8-yl)methyl)-5-(4-methyl-7H-pyrrolo[2,3-d]pyrimidin-7-yl)cyclopentane-1,2-diol] | 378 | 2
14 | Nc1ncnc2c1c(F)cn2[C@@H]1C[C@H](Oc2cc(Cl)cc3c2CNCC3)[C@@H](O)[C@H]1O [Example 102, (1S,2S,3R,5S)-3-(4-amino-5-fluoro-7H-pyrrolo[2,3-d]pyrimidin-7-yl)-5-((6-chloro-1,2,3,4-tetrahydroisoquinolin-8-yl)oxy)cyclopentane-1,2-diol] | 192 | 1
15 | Cc1ncnc2c1ccn2[C@@H]1C[C@H](Oc2cccc3c2CNC(C)C3)[C@@H](O)[C@H]1O (single isomer, unassigned) [Example 184] | 1400 | 1
16 | Nc1ncnc2c1c(F)cn2[C@@H]1C[C@H](Oc2cc(C(F)F)c(F)c3c2CNCC3)[C@@H](O)[C@H]1O [Example 196, (1S,2S,3R,5S)-3-(4-amino-5-fluoro-7H-pyrrolo[2,3-d]pyrimidin-7-yl)-5-((6-(difluoromethyl)-5-fluoro-1,2,3,4-tetrahydroisoquinolin-8-yl)oxy)cyclopentane-1,2-diol] | 3 | 1
17 | N#Cc1cc2c(c(O[C@H]3C[C@@H](n4cc(Br)c5c(N)ncnc54)[C@H](O)[C@@H]3O)c1)CNCC2 [Example 120, 8-(((1S,2S,3S,4R)-4-(4-amino-5-bromo-7H-pyrrolo[2,3-d]pyrimidin-7-yl)-2,3-dihydroxycyclopentyl)oxy)-1,2,3,4-tetrahydroisoquinoline-6-carbonitrile] | 442 | 1
18 | Cc1ncnc2c1ccn2[C@@H]1C[C@H](Oc2cc(Cl)c(F)c3c2CNCC3)[C@@H](O)[C@H]1O [Example 93, (1S,2S,3S,5R)-3-((6-chloro-5-fluoro-1,2,3,4-tetrahydroisoquinolin-8-yl)oxy)-5-(4-methyl-7H-pyrrolo[2,3-d]pyrimidin-7-yl)cyclopentane-1,2-diol] | 140 | 1
19 | CCc1cc2c(c(O[C@H]3C[C@@H](n4cc(F)c5c(N)ncnc54)[C@H](O)[C@@H]3O)c1)CNCC2 [Example 106, (1S,2S,3R,5S)-3-(4-amino-5-fluoro-7H-pyrrolo[2,3-d]pyrimidin-7-yl)-5-((6-ethyl-1,2,3,4-tetrahydroisoquinolin-8-yl)oxy)cyclopentane-1,2-diol] | 3850 | 2
